Measurements from patent US20230321117A1, “USE OF […] TREATING AN EPILEPSY DISORDER” (MARINUS PHARMACEUTICALS, INC., priority 2020, published 2023).

Tests used:
Assay type in all cases: in vivo, human
[1] = tested on: seizure occurrence in presurgical epilepsy participants; assay: Double-blind placebo-controlled study during AED discontinuation with inpatient continuous EEG monitoring; conditions: 500 mg TID or 625 mg TID, up to 8 days; log-rank p=0.08
Experimental: A double-blind, placebo-controlled study that enrolled 52 participants 18-65 years of age undergoing AED discontinuation during inpatient continuous EEG monitoring as part of an evaluation for surgical treatment of epilepsy was performed. Participants were randomized and administered: (i) ganaxolone 500 mg TID, (ii) 625 mg TID, or (iii) matching placebo and treated for up to 8 days. The primary endpoint was difference in the duration of treatment before meeting withdrawal criteria based on seizure occurrence.

[2] = tested on: partial-onset (focal) seizures; assay: Phase 2 study in adults with uncontrolled partial-onset (focal) seizures
Experimental: A Phase 2 study was conducted. It enrolled 147 participants 18-69 years of age with a diagnosis of epilepsy with uncontrolled partial-onset (focal) seizures with or without secondary generalization despite being treated with up to 3 AEDs. Participants were randomized to adjunctive placebo (N=49) or GNX liquid suspension (N=98) titrated to a target dose of at 500 mg TID (1500 mg/day) in addition to their baseline AEDs, after which they entered an eight-week prospective baseline period followed by a 10-week double-blind phase. The primary endpoint was the reduction in weekly frequency of focal motor, focal impaired awareness and focal to bilateral tonic-clonic seizures from baseline to the double-blind phase. The prespecified primary analysis was the reduction in mean weekly seizure frequency, with log-transformed rates analyzed using analysis of covariance (ANCOVA). The protocol defined the population for analysis (“Primary Population”) as participants with 10 or fewer seizures/week during the baseline period.

[3] = tested on: major motor seizures in patients with CDKL5 deficiency disorder (CDD); assay: Percent change in major motor seizure frequency vs plasma ganaxolone level, phase 3 CDD trial; conditions: back-transformation of log values; CDD participants
Source text: (§1) Global, randomized, double-blind, placebo-controlled phase 3 clinical trial to assess the safety and efficacy of adjunctive ganaxolone for the treatment of seizures associated with CDD. Patients aged 2 to 21 years with a pathogenic or likely pathogenic mutation of the CDKL5 gene, neurodevelopmental impairment, and seizures refractory to treatment with at least 2 prior antiseizure medications who experienced at least 16 seizures per 28 days during the 2 months prior to screening were eligible to enroll. Study consisted of a 6-week baseline followed by a 17-week double-blind phase (ganaxolone or placebo, 1:1). The dose of ganaxolone 50 mg/mL suspension was titrated over 4 weeks to 63 mg/kg/day (21 mg/kg TID), not to exceed 1800 mg/d (600 mg TID), or to the maximum tolerated dose. Blood draws for PK analysis were scheduled to occur at visit 3 (week 5), visit 4 (week 9), and visit 5 (week 17).
Mean ganaxolone concentration was calculated for each subject using available results from up to three laboratory determinations during the double-blind phase. Linear regression was conducted using arithmetic- and natural logarithm-transformed percent reduction in major motor seizures (loge [percent reduction+100]) as dependent variable and natural logarithm-transformed mean ganaxolone concentration as the single explanatory variable. […]

[4] = tested on: partial-onset (focal) seizures; assay: Phase 3 trial in adults with focal seizures
Experimental: Based on the results of the phase 2 study, a double-blind, placebo-controlled phase 3 trial in adults with focal seizures was conducted. The study enrolled two cohorts: Cohort 1 was an initial assessment of safety and tolerability of GNX 1200 or 1800 mg/day compared to placebo. Cohort 2, on which the primary efficacy analysis was based, enrolled 359 participants with a diagnosis of epilepsy with uncontrolled partial-onset (focal) seizures with or without secondary generalization who had failed at least two prior AEDs and had been on a stable regimen of one to three AEDs for at least one month. Following an eight-week prospective baseline period during which there were at least three seizures/28 days, participants were randomized to GNX 1800 mg/d (N=179) or placebo (N=180). The primary endpoint was the percent change in 28-day frequency of focal motor, focal impaired awareness and focal to bilateral tonic-clonic seizures from baseline to the double-blind phase. The primary efficacy analysis was a rank ANCOVA based on the modified intent-to-treat (mITT) population, defined as randomized participants who had taken at least one dose of study drug and provided post-baseline seizure data.

[5] = Plasma ganaxolone concentration in phase 3 CDD trial (PK/PD analysis)
Source text: as §1
Mean ganaxolone concentration was calculated for each subject using available results from up to three laboratory determinations during the double-blind phase. Linear regression was conducted using arithmetic- and natural logarithm-transformed percent reduction in major motor seizures (loge [percent reduction+100]) as dependent variable and natural logarithm-transformed mean ganaxolone concentration as the single explanatory variable. Regression diagnostics included examination of residual and normal probability plots and determination of outliers and influential values. Cases with standardized residuals >2 or <−2 were excluded from the model and the regression was repeated.
The resulting sample was utilized in determination of a Pearson correlation coefficient (using log-transformed values). Additionally, percent seizure reduction was compared in three tertiles representing low (N=13), medium (N=13) and high (N=12) mean per subject ganaxolone concentrations using a Kruskal-Wallis test.

## CC(=O)[C@H]1CC[C@H]2[C@@H]3CC[C@H]4C[C@](C)(O)CC[C@]4(C)[C@H]3CC[C@]12C [ganaxolone]
[1]
  duration of treatment before meeting withdrawal criteria based on seizure occurrence, relative to placebo: longer duration of treatment prior to study withdrawal
[2]; ITT population, 1500 mg/day TID, p=0.014 vs placebo
  median percent reduction in seizure frequency: 25.9%
[2]; ITT population, p=0.049
  net reduction in weekly seizure frequency compared to placebo: 11.4%
[2]; Phase 2, 1500 mg/d, TID, N 98
  Median % reduction GNX: 25.9%
[2]; Primary Population (10 or fewer seizures/week at baseline), p=0.042
  net reduction in weekly seizure frequency compared to placebo: 11.8%
[2]; Primary Population, 500 mg TID liquid suspension, adjunctive, baseline 3.13
  weekly seizure frequency during the double-blind phase: 2.70
[3]
  seizure reduction predicted at plasma concentration of approximately 100 ng/mL: approximately 40%
[4]; Phase 3, 1800 mg/d, BID, N 179
  Median % reduction GNX: 21.3%
[4]; mITT, Cohort 2, 1800 mg/d, 28-day frequency, p=0.179 vs placebo
  percent reduction in seizure frequency from baseline period to double-blind phase: 21.3%
[4]; oral 1800 mg daily (900 mg twice a day), adults with focal seizures
  clinical endpoint outcome: clinical endpoint was not achieved
[5]; High GNX level tertile (n = 12)
  Mean GNX level: 172.6 ng/mL
[5]; Low GNX level tertile (n = 13)
  Mean GNX level: 40.2 ng/mL
[5]; Medium GNX level tertile (n = 13)
  Mean GNX level: 72.3 ng/mL
